{"source": "patent US20170246117A1", "about": "“INJECTABLE MICROPARTICLES FOR HYPER-LOCALIZED RELEASE OF THERAPEUTIC AGENTS” (priority 2014, published 2017)", "origin": "cited, not measured here", "key": {"[1]": {"conditions": "reported, Mollmann et al. 1998"}, "[2]": {"conditions": "40 mg, human subjects; Derendorf et al. 1986; FIG. 7"}}}
{"smiles": "CCC(=O)O[C@]1(C(=O)SCF)[C@H](C)C[C@H]2[C@@H]3C[C@H](F)C4=CC(=O)C=C[C@]4(C)[C@@]3(F)[C@@H](O)C[C@@]21C", "note": "[fluticasone propionate]", "values": [{"measurement": "EC50", "setting": "[1]", "result": "0.007 to 0.03", "unit": "ng/mL"}]}
{"smiles": "CC(C)(C)CC(=O)OCC(=O)[C@@]12OC(C)(C)O[C@@H]1C[C@H]1[C@@H]3CCC4=CC(=O)C=C[C@]4(C)[C@@]3(F)[C@@H](O)C[C@@]12C", "note": "[triamcinolone hexacetonide]", "values": [{"measurement": "release profile after intra-articular administration", "setting": "[2]", "result": "significant initial burst followed by rapid decline"}]}
